Laboratory results published in patent publication US20240252493A1, “Apelin Receptor Modulators for Treating Age-Related Muscle Conditions” (BIOAGE LABS, INC., priority 2021, published 2024).
Entries after “also recorded” stand apart in the source; their conditions may differ.

Assays:
tibialis of aged mice = test: CTX-induced muscle injury: histology (cross-sectional area, centrally nucleated fibers); type: in vivo
Experimental: Impairment of muscle regeneration can contribute to age-related muscle weakness. This is particularly true in aged individuals who engage in physical activity. Exercise-induced muscle hypertrophy is linked to the capacity of muscle stem cells to be activated and promote regeneration.
Mice were i.p injected with buprenorphine (Centravet, 0.1 mg/kg) 30 minutes before injury and the day after. The day of the injury, mice were anesthetized with isoflurane inhalation and hindlimbs were shaved. Then, 10 μM of cardiotoxin (CTX, Latoxan, #L8102) was injected through two injections of 25 μl into the left tibialis muscle and two injections of 50 μl into the left gastrocnemius muscle, using a 22-gauge needle (Hamilton). Mice were euthanized 3 and 7 days after injury by cervical dislocation, muscles (PBS- and CTX-injected) were cut in two parts, one being snap frozen into liquid nitrogen for total RNA extraction and the other part being embedded into OCT, frozen in isopentane cooled with liquid nitrogen for histological analysis.
Mouse muscle samples were dissected and cryopreserved in OCT frozen in liquid nitrogen cooled isopentane. Samples were then sectioned at 10 μm on a cryostat and post-fixed with 4% Paraformaldehyde (PFA) for 15min at room temperature. Muscle frozen sections (10 μm) were stained by helaun/eosin or immune-labeled for laminin (Abcam) and embryonic myosin. Briefly, sections were blocked 1 h in PBS plus 4% BS(a), 2% goat serum, 0.01% Triton X-100. Sections were then incubated overnight with primary antibodies. After washes in PBS, sections were incubated 1 h with secondary antibodies anti-Ig2b AF 488 (Life Technology). Slides were finally mounted in ProLong Gold antifade Reagent (Molecular probes by Life Technology) with DAPI. Images were captured using a digital camera (Nanozoomer, Hamamatsu) attached to a motorized fluorescence microscope or using Olympus VS120 Virtual Microscopy Slide Scanning System. The area covered by eMHC-positive fibers and degenerated area was determined manually across the entire sections using the VS-ASW FL software measurement tools. The size of myofibers with central nuclei was calculated from laminin/DAPI staining on all fibers of the section and area determination were performed across the entire sections, using an automated image processing algorithm developed internally using the MetaXpress software (Molecular Devices).

apelin receptor = test: Apelin receptor levels after one month of BGE-105 in immobilized aged mice; type: in vivo; conditions: after one month of treatment at 50 mg/kg BID
Excerpt: Tissue samples were lysed using T-PER tissue protein extraction reagent (Thermo Fisher Scientific #78510) containing EDTA and protease/phosphatase inhibitors on the Omni Bead Ruptor 12 Homogenizer. Total protein was extracted then quantified using Pierce™ BCA Protein Assay Kit. Loaded equal amounts of total protein per lane on a 4-12% SDS-PAGE gel and transferred to PVDF membrane. Membranes were blocked and blotted with anti-phospho-AMPKα-Thr172 (Cell Signaling Technology, CST #2535), total-AMPKα (CST #2532), anti-phospho-Akt-SeR^473 (CST #4060), total-Akt (CST #4685), anti-phospho-ERK-1/2-Thr202/Tyr204 of Erk1 and Thr185/Tyr187 of Erk2 (CST #4370), total-ERK-1/2 (CST #9107) or anti-APLNR receptor (abcam, ab214369) antibodies. Band intensities were normalized to loading control anti-β-Actin (CST #3700) or anti-GAPDH (abcam, ab181602) antibodies. Immunoreactive proteins were detected using SuperSignal™ West Femto Substrate (Thermo Fisher Scientific #34095) and quantified by Image Lab™ software (Bio-Rad Laboratories, Inc.).
After 3 weeks of treatment following casting, mice were euthanized 1 hour after the final ZT1 dose, and tissues isolated, weighed, then flash frozen in liquid nitrogen for subsequent western blot analysis.

[1] = system: aged (24-month-old) C57BL/6 mice; test: Tissue wet weight and body weight at end of frailty study; type: in vivo; conditions: vs vehicle
Experimental: The animals were housed with access to voluntary running wheels that wirelessly transmit running data to a computer for analysis. Voluntary running wheel activity levels were measured daily, and body weights were measured every 2 weeks.
To determine whether increased wheel activity was accompanied by an increase in muscle strength, near the end of the frailty study the mice were subjected to a grid hang test, which measures forearm grip strength. […] Average latency to fall increased in the BGE-105-treated mice (p=0.04, Mann-Whitney U test) (FIGS. 3B and 3C). Thus, the increase in running activity observed in BGE-105-treated mice were accompanied by improved forearm grip strength.

rats = conditions: cited from earlier work
79-HMC = test: Early proliferation marker expression (RT-PCR), older donor cells; type: cell-based, human
Experimental: Immortalized human cells from male donors (25-HMC) […] (79-HMC) are grown from the proliferation stage until they become 80% confluent, differentiate, and become myotubes. […] Early proliferation markers (Pax7, Myf5, MyoD, and MyoG were assessed via RT-PCR (FIG. 8D to 8K)

## COc1cccc(OC)c1-n1c(NS(=O)(=O)[C@@H](C)[C@H](C)c2ncc(C)cn2)nnc1-c1cncc(C)c1 [BGE-105, (2S,3R)—N-(4-(2,6-dimethoxyphenyl)-5-(5-methyl-3-pyridinyl)-4H-1,2,4-triazol-3-yl)-3-(5-methyl-2-pyrimidinyl)-2-butanesulfonamide]
Tibialis of aged mice; 18-months old mice after cardiotoxin, apelin 0.5 μmol/kg/day, BGE-105 200 mg/kg/day
  amount of centrally nucleated myofibers (CNM): significant increase
Tibialis of aged mice; aged mice after cardiotoxin, BGE-105 50 or 200 mg/kg/day
  central nuclei in regenerating fibers: promoted accumulation of central nuclei; also recorded: dose-dependent increase in central nucleated fibers
Tibialis of aged mice; aged mice, 3 and 7 days post cardiotoxin, apelin, BGE-105 50 and 200 mg/kg/d
  cross-sectional area of the tibialis: positive effect; also recorded: significant increase in cross sectional area
Apelin receptor
  apelin receptor levels: noticeable but non-significant drop
[1]
  body weight: the increase was not significant
  tissue wet weight, gastrocnemius: trend toward higher tissue wet weight
  tissue wet weight, heart: no difference
  tissue wet weight, quadriceps: trend toward higher tissue wet weight
  tissue wet weight, tibialis anterior (TA): significantly higher tissue wet weight
rats
  cardiovascular response: induces a cardiovascular response
79-HMC; aged-donor cells
  expression of muscle cell differentiation markers Pax7, Myf5, MyoD, and MyoG: increased the expression
79-HMC; older cells, 0.05, 0.5, 5, 50 nM, vs control
  Pax7 levels: significant increase at all treatment doses
79-HMC; older cells, all treatment levels
  MyoG levels: increase at all treatment levels
79-HMC; older donor cells, 5 and 50 nM
  Myf5 expression: equal to apelin treatment
79-HMC; older donor cells, all treatment levels
  MyoD levels: increase at all treatment levels
